7 compounds from patent US4570006A, “Amidine compound, process for producing same and anti-complement agent comprising same” (Torii & Co. Ltd., priority 1981, dated 1986) can be followed below.

Read-outs that look alike come from different tables or passages of the source. A value given as a limit tells only on which side of the number the result lay.

For assay [1], the target named is T1, Trypsin (Bos taurus, UniProt P00760).
T1 sequence (P00760 24-246): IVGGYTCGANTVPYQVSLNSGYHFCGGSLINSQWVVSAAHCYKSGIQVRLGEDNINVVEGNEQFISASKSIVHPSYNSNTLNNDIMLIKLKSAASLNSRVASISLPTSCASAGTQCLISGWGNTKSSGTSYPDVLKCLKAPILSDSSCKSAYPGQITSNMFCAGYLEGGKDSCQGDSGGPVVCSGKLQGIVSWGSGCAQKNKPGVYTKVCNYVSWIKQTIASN
Kind of assay: Anti-trypsin activity (inhibition of TAME hydrolysis). It counts as biochemical. The note with it: read-out: ID50, trypsin. Put shortly:
(§1)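 Inhibition of enzymatic TAME (tosylarginine methyl ester) hydrolysis, per Muramatsu et al. Values are ID50, the molar concentration of compound inhibiting 50% of each enzyme's TAME-hydrolysing activity.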

For assay [2], the target named is Plasmin (Homo sapiens, UniProt P00747). Kind of assay: Anti-plasmin activity (inhibition of TAME hydrolysis). It counts as biochemical. The note with it: read-out: ID50, plasmin. The method in brief:
as §1

Assay [3] has as its system Kallikrein. The assay is described as follows: Anti-kallikrein activity (inhibition of TAME hydrolysis). It counts as biochemical. The note with it: read-out: ID50, kallikrein. Put shortly:
as §1

The target of assay [4] is T2, Cls (Homo sapiens, UniProt P09871).
T2 sequence (P09871 438-688 limits assumed): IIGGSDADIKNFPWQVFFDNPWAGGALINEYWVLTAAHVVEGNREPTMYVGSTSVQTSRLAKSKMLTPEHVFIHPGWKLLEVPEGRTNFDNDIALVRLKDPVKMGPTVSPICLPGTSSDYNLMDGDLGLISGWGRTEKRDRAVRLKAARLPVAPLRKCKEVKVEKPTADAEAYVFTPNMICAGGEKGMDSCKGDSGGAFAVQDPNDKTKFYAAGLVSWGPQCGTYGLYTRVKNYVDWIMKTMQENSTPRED
T2 sequence (P09871 16-437 limits assumed): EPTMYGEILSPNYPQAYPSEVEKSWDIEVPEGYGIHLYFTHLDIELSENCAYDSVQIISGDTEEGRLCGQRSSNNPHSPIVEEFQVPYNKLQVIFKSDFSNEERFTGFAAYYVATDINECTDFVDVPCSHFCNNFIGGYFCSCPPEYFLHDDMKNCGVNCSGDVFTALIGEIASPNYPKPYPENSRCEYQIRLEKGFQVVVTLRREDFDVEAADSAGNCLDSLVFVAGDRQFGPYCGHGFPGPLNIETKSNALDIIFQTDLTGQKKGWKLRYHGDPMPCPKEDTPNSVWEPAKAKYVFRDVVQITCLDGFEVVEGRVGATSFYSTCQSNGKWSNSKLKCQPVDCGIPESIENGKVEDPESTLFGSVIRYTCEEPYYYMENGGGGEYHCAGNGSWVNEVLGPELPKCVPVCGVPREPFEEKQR
The assay is described as follows: Anti-Cl esterase activity, Cls (ATEE hydrolysis). The note with it: hydrolysis of ATEE; read-out: Anti-Cl activity, Cls (50% inhibition). It counts as biochemical. The protocol:
The anti-Cl esterase (Clr, Cls) activity was determined according to the method of Okamura et al. [K. Okamura, M. Muramatsu and B. Fujii, Biochem. Biophys. […] The figures in Table 2 have the following meanings:
Cls: Molar concentration of the test compound which inhibits 50% of the ability of Cls to hydrolyse ATEE (acetyltyrosin ethyl ester).

Assay [5] deals with complement. Kind of assay: Inhibition of complement mediated hemolysis. It counts as cell-based.
In assay [6] the target is Thrombin (Homo sapiens, UniProt P00734). Kind of assay: biochemical. The note with it: read-out: ID50, thrombin.
The target in assay [7] is T3, Clr (Homo sapiens, UniProt P00736).
T3 sequence (P00736 464-705 limits assumed): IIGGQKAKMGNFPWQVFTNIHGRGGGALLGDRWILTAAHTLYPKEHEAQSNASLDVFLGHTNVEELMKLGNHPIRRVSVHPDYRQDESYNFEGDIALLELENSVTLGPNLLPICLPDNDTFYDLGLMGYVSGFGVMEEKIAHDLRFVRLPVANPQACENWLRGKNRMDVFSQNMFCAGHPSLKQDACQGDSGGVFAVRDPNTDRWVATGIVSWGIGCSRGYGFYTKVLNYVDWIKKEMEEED
T3 sequence (P00736 18-463 limits assumed): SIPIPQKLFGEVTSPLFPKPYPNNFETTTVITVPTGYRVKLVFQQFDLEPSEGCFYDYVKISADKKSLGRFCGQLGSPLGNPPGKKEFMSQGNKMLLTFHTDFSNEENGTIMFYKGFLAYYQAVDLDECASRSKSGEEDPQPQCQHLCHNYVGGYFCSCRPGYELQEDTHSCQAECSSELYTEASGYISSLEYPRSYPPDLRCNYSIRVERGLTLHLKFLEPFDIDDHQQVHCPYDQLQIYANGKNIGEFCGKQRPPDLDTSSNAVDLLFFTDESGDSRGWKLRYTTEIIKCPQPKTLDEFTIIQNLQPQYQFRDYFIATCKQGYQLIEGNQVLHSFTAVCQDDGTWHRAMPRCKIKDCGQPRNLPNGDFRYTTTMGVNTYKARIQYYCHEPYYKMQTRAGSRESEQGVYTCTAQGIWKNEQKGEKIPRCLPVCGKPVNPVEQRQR
Kind of assay: Anti-Cl esterase activity, Clr (AAME hydrolysis). It counts as biochemical. The note with it: hydrolysis of AAME; read-out: Anti-Cl activity, Clr (ID50). The protocol: The anti-Cl esterase ([…]) activity was determined according to the method of Okamura et al. [K. Okamura, M. Muramatsu and B. Fujii, Biochem. Biophys.

Sequence of Plasmin (P00747 581-810 limits assumed, species assumed): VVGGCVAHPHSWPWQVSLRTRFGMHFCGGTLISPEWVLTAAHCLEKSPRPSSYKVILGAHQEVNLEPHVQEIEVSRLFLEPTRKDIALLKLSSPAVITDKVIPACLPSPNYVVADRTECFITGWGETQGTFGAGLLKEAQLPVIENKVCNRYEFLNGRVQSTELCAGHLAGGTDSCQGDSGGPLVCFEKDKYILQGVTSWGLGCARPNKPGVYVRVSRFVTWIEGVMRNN
Sequence of Plasmin (P00747 97-580 limits assumed, species assumed): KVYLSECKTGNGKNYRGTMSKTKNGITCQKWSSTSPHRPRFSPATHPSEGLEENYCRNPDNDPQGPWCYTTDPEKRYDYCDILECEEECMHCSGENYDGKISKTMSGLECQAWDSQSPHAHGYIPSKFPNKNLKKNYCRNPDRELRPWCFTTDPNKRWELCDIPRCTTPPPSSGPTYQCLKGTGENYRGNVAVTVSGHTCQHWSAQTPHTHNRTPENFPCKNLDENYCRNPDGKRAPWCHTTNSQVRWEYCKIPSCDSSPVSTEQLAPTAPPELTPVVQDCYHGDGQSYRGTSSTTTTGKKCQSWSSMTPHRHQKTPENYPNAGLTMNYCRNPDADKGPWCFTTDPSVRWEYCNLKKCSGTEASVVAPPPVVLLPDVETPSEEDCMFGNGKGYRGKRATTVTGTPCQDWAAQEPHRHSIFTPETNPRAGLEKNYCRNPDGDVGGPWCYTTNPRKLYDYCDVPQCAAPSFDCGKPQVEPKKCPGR

Take `N=C(N)c1ccc(OC(=O)c2ccccc2)c(C(=O)c2ccccc2)c1` [Compound 29, 4-amidino-2-benzoylphenyl benzoate]: the IC50 in assay [1] is 0.8 µM; in assay [2], 0.4 µM; in assay [3] it was 1 µM; in assay [4], 0.3 µM; in assay [6] (TAME hydrolysis) it was 0.03 µM; in assay [7] it was 3 µM. Further, the “Inhibition of complement mediated hemolysis (%)” value (from here on “Inhibition … (%)”) is 98.4% in assay [5] (compound at 1 × 10^-4), 97.9% in assay [5] (compound at 1 × 10^-5), 67.8% in assay [5] (compound at 1 × 10^-6) and 8.0% in assay [5] (compound at 1 × 10^-7).

For the compound `N=C(N)c1ccc(OC(=O)c2ccccc2)c(NC(=O)c2ccccc2)c1` [Compound 30, 4-amidino-2-benzoylaminophenyl benzoate], the IC50 in assay [1] worked out at 0.3 µM; in assay [2], 0.4 µM; in assay [3] it was 0.2 µM; in assay [4] it was 0.3 µM; in assay [6] (TAME hydrolysis), 0.03 µM; in assay [7], 0.9 µM. Further, the “Inhibition … (%)” value in assay [5] (compound at 1 × 10^-4) came out at 100%; in assay [5] (compound at 1 × 10^-5), 100%; in assay [5] (compound at 1 × 10^-6), 99.0%; in assay [5] (compound at 1 × 10^-7), 45.3%.

On to `COc1cc(C(=N)N)ccc1OC(=O)/C=C/c1ccccc1` [Compound 31, 4-amidino-2-methoxyphenyl cinnamate], for which the IC50 in assay [1] came out at 8 µM; in assay [2], 3 µM; in assay [3] it was 40 µM; in assay [4] it was 3 µM; in assay [6] (TAME hydrolysis), 20 µM; in assay [7], 2 µM. Also, the “Inhibition … (%)” value in assay [5] (compound at 1 × 10^-4) was determined as 97.2%; in assay [5] (compound at 1 × 10^-5), 80.5%; in assay [5] (compound at 1 × 10^-6), 15.8%; in assay [5] (compound at 1 × 10^-7), 1.8%.

With `N=C(N)c1ccc(OC(=O)CCCc2ccccc2)c(C(=O)c2ccccc2)c1` [Compound 33], the IC50 in assay [1], in assay [2], in assay [3], in assay [4], in assay [6] (TAME hydrolysis) and in assay [7] was more than 10 µM in each case. In addition, the “Inhibition … (%)” value in assay [5] (compound at 1 × 10^-4) is recorded as 94.1%; in assay [5] (compound at 1 × 10^-5), 20.4%; in assay [5] (compound at 1 × 10^-6) it was 0%; in assay [5] (compound at 1 × 10^-7) it was 0%.

Consider `N=C(N)c1ccc(OC(=O)C=Cc2ccccc2)c([N+](=O)[O-])c1` [Compound 34], for which the IC50 in assay [1] is 4 µM; in assay [2], 4 µM; in assay [3], more than 10 µM; in assay [4], 3 µM; in assay [6] it was 3 µM; in assay [7] it was 3 µM. The “Inhibition … (%)” value in assay [5] (compound at 1 × 10^-4) was 99.6%; in assay [5] (compound at 1 × 10^-5), 96.7%; in assay [5] (compound at 1 × 10^-6), 53.7%; in assay [5] (compound at 1 × 10^-7) it was 12.4%.

On to `COc1cc(C(=N)N)ccc1OC(=O)c1ccc(C)cc1` [Compound 35], for which the IC50 in assay [1] is 1 µM; in assay [2] it was 5 µM; in assay [3] it was more than 10 µM; in assay [4], 0.3 µM; in assay [6] (TAME hydrolysis), 3 µM; in assay [7] it was 0.4 µM. The “Inhibition … (%)” value in assay [5] (compound at 1 × 10^-4) is on record as 88.8%; in assay [5] (compound at 1 × 10^-5), 43.9%; in assay [5] (compound at 1 × 10^-6), 29.9%; in assay [5] (compound at 1 × 10^-7), 11.8%.

As to `Cc1ccc(C(=O)Oc2ccc(C(=N)N)cc2[N+](=O)[O-])cc1` [Compound 37], the IC50 in assay [1] stood at 0.05 µM; in assay [2], 0.4 µM; in assay [3], 0.7 µM; in assay [4], 0.06 µM; in assay [6] (TAME hydrolysis), 0.3 µM; in assay [7] it was 0.04 µM. Further, the “Inhibition … (%)” value in assay [5] (compound at 1 × 10^-4) stood at 95.9%; in assay [5] (compound at 1 × 10^-5), 37.3%; in assay [5] (compound at 1 × 10^-6) it was 16.0%; in assay [5] (compound at 1 × 10^-7) it was 0%.
